# Test results as given in PMC4004761 (Journal of medicinal chemistry, 2013).
# Where two headings read alike, the source gives them in different places. Marks after values point to notes of the source that are not given here.
# Tests used:
# [1] = tested on: kindled seizures (seizure score, after-discharge duration); settings: for Effect in rat kindling model: Figure 1
# rat Nav1.2 = rat Nav1.2 (Rattus norvegicus, UniProt P04775); assay: Voltage-gated Na+ channel whole-cell patch-clamp in CHL1610 cells; type: cell-based
# [2] = tested on: maximal electroshock seizure (hind-limb tonic extension); settings: mouse
# [3] = tested on: maximal electroshock seizure (hind-limb tonic extension); settings: in vivo, cited from earlier work
# rat KCNQ2 = rat KCNQ2 (Rattus norvegicus, UniProt O88943); assay: KCNQ2 whole-cell patch-clamp, M-current protocol; type: cell-based
# kappa-opioid receptor = kappa-opioid receptor (Homo sapiens, UniProt P41145); assay: Cerep receptor-binding panel: kappa opioid; settings: read-out: Inhibition, kappa-opioid receptor
# [4] = tested on: maximal electroshock seizure (hind-limb tonic extension); settings: at 2 h (time of peak effect); cited from earlier work
# [5] = tested on: chemically-induced forelimb clonic seizures; settings: mouse, cited from earlier work
# [6] = tested on: kindled seizures (seizure score, after-discharge duration); settings: cited from earlier work
# sound-induced seizures = assay: animal or person; settings: Mus musculus, ip, read-out: Audiogenic seizure ED50
# Sequence of rat KCNQ2 (O88943 whole entry): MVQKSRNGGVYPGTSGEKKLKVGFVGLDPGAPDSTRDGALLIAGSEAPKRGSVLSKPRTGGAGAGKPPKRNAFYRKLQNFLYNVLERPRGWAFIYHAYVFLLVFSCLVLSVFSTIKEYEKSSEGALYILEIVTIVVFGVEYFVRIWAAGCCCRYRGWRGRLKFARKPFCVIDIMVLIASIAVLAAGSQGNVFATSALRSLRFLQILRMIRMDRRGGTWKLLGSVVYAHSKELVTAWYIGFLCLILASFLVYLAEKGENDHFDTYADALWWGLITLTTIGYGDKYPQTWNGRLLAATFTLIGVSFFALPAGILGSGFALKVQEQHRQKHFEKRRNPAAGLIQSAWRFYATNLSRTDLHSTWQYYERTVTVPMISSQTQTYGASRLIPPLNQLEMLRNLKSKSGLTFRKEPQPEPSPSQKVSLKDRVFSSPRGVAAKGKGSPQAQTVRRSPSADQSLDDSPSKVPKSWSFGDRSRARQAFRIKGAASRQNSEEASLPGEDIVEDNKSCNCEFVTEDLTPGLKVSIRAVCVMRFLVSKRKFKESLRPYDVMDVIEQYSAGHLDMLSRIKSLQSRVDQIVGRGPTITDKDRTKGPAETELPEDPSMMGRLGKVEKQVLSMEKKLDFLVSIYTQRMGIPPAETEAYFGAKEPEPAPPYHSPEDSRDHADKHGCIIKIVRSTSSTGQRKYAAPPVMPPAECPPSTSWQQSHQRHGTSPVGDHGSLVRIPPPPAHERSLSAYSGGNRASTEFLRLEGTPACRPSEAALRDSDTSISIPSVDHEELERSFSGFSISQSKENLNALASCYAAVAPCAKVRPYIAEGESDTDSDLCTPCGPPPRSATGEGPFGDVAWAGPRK
# Sequence of rat Nav1.2 (P04775 whole entry): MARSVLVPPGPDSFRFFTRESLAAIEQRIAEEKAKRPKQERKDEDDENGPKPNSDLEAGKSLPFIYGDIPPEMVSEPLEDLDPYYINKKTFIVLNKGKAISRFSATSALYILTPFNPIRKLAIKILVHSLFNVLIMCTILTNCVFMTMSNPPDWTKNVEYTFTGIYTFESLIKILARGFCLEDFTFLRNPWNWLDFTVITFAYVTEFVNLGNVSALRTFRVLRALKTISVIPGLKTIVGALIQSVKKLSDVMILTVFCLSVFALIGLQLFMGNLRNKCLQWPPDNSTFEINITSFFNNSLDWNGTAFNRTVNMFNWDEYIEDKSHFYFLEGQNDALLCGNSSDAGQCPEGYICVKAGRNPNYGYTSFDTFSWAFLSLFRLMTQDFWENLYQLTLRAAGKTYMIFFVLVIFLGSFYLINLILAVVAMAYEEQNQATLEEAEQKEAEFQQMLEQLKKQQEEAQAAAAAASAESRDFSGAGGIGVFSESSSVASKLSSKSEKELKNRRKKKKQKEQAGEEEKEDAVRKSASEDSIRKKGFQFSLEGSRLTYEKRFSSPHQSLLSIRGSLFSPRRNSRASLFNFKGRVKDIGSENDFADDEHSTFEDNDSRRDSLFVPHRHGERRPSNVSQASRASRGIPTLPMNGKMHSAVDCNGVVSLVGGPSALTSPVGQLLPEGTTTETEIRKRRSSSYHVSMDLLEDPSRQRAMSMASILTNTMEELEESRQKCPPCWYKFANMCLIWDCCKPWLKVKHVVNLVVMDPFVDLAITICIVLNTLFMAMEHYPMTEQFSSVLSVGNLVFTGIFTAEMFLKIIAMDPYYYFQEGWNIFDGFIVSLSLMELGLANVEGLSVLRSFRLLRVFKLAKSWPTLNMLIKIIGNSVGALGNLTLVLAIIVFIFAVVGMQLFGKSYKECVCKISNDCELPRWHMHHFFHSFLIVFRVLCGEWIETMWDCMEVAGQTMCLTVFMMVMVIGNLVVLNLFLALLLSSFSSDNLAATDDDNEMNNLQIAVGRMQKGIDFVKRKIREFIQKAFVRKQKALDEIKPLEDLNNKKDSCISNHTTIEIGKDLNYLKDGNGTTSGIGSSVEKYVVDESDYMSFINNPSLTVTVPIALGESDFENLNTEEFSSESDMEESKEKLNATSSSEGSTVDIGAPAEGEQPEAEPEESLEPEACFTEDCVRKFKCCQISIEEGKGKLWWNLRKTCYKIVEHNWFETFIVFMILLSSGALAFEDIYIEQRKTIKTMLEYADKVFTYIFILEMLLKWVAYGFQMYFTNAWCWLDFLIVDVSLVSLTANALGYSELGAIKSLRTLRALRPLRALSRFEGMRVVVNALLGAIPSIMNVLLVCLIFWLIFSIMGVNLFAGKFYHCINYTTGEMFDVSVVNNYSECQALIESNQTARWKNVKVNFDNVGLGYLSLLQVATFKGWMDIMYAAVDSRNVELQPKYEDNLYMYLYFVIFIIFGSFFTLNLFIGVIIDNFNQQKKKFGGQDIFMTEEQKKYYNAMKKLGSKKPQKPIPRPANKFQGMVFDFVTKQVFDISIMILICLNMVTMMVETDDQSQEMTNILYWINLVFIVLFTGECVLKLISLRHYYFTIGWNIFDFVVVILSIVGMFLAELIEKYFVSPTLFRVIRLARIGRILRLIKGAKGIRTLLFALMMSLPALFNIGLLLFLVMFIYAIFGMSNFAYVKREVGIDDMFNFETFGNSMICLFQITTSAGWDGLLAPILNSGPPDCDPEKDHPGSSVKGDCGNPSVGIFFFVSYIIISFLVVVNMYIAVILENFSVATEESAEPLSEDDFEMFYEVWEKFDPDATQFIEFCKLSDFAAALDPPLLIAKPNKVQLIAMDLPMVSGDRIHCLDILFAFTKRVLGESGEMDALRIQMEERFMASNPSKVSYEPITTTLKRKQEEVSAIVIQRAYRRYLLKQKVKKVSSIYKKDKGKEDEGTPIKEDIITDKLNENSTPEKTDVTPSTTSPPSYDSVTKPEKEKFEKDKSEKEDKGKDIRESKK
# Sequence of kappa-opioid receptor (P41145 whole entry): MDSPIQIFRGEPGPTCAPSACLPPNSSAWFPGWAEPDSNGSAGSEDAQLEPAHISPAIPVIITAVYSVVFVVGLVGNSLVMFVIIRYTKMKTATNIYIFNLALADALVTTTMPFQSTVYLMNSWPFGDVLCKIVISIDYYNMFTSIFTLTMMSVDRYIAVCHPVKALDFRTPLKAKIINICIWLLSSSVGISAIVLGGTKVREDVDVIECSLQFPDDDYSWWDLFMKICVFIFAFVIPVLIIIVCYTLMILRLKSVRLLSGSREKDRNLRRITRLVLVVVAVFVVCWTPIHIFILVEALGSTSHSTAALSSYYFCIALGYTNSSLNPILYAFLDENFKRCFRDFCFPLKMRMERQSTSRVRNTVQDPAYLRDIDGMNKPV
smiles,measurement,setting,value
CCC1(C)CC(=O)NC1=O (centres unmarked) [ethosuximide],Effect in rat kindling model,[1]; maximally effective dose,not effective
NCC1(CC(=O)O)CCCCC1 [gabapentin],Effect on Na+ channel activity,rat Nav1.2; up to 300 μM,no effect
COc1cccc2c1O[C@@H](CNS(N)(=O)=O)CO2 [10g],"MES, po, effect (animals responding / animals tested)","[2]; 100 mg/kg po, 0.5 h","0.5, 0/5; 2, 0/5 ^j"
same,"MES, po, effect (animals responding / animals tested)","[2]; 100 mg/kg po, 2 h","0.5, 0/5; 2, 0/5 ^j"
CCCCNS(N)(=O)=O [BuNHSO2NH2],Activity in the MES test,[3]; mouse,not active
"NS(=O)(=O)NC[C@H]1COc2cc(Cl)ccc2O1 [compound 4, (2S)-(–)-N-((6-Chloro-2,3-dihydrobenzo[1,4]dioxin-2-yl)methyl)sulfamide]",Nav1.2 inhibition at −107 mV,rat Nav1.2; at −107 mV,virtually no inhibition
same,Increase in KCNQ2 current,"rat KCNQ2; 300 μM, −50 mV, N = 5 cells",2.4 fold
same,Increase in decay kinetics,"rat KCNQ2; 300 μM, −50 mV, N = 5 cells",2 fold
same,Increase in KCNQ2 current,rat KCNQ2; 750 μM,4 fold
same,inhibition at 10 µM,kappa-opioid receptor,45%
same,Effect on after-discharge duration,"[1]; rat, i.p., p = 0.07",no statistically significant effect
NS(=O)(=O)NCc1ccccc1 [PhCH2NHSO2NH2],Mouse MES effect (animals protected / tested),[3]; 100 mg/kg,3/3
same,Mouse MES effect (animals protected / tested),[3]; 300 mg/kg,3/3
"NS(=O)(=O)NCc1csc2ccccc12 [compound 3, N-((benzo[b]thien-3-yl)methyl)sulfamide]",Oral mouse MES ED50,[3],119 ^c mg/kg
same,"MES, po, effect (animals responding / animals tested)","[3]; mouse, 100 mg/kg","0.5, 1/5; 2, 3/5"
same,Rat MES oral ED50,[4],34 mg/kg
same,ED50 vs s.c. Bic-induced forelimb clonic seizures,"[5]; ip, […]",156 mg/kg
same,ED50 vs s.c. PTZ-induced forelimb clonic seizures,"[5]; ip, […]",161 mg/kg
same,ED50 vs s.c. Pic-induced forelimb clonic seizures,"[5]; ip, […]",106 mg/kg
same,Rats with complete absence of seizure activity,"[6]; maximally effective dose, time of peak effect",six out of eight
same,Reduction of after-discharge duration,"[6]; rat, i.p., p < 0.01",64%
same,Rats with seizure score reduced from 5 to 0,"[6]; rat, i.p., p = 0.0001",six out of eight
same,Time of peak activity,"[6]; rat, i.p., sustained at 1 h",15 min
NS(=O)(=O)NCC1Oc2ccc(Cl)cc2O1 (centres unmarked) [11b],"MES, po, effect (animals responding / animals tested)","[2]; 100 mg/kg po, 0.5 h","0.5, 0/5; 2, 0/5"
same,"MES, po, effect (animals responding / animals tested)","[2]; 100 mg/kg po, 2 h","0.5, 0/5; 2, 0/5"
"CN(C)S(=O)(=O)NCC1COc2ccccc2O1 (centres unmarked) [compound 7, N-((2,3-Dihydrobenzo[1,4]dioxin-2-yl)methyl)-N’,N’-dimethylsulfamide]","MES, po, effect (animals responding / animals tested)","[2]; 300 mg/kg po, 0.5 h",4/5
same,"MES, po, effect (animals responding / animals tested)","[2]; 300 mg/kg po, 2 h",0/5
"CC1(C)O[C@@H]2[C@@H](CO[C@@]3(COS(N)(=O)=O)OC(C)(C)O[C@@H]23)O1 [compound 1, topiramate]",Rats with complete protection,[1]; maximally effective dose,one out of eight
same,Effect in rat kindling model,[1]; maximally effective dose,not effective
same,Oral mouse MES ED50,[3],43.8 ^f mg/kg
same,"MES, po, effect (animals responding / animals tested)",[3]; mouse,"0.5, 2/5; 2, 4/5 ^l"
same,ED50,sound-induced seizures,4.2 mg/kg
CC[C@@H](C(N)=O)N1CCCC1=O [levetiracetam],ED50 in chemically-induced seizures (comparators),[5],> 540 mg/kg
NC(=O)N1c2ccccc2C=Cc2ccccc21 [carbamazepine],Effect in rat kindling model,[1]; maximally effective dose,significantly suppressed seizure activity
same,Doses giving protection similar to 4 (range of neurotoxic effects),[1]; rat kindling,> 26 mg/kg
CCCC(CCC)C(=O)O [valproic acid],Effect in rat kindling model,[1]; maximally effective dose,significantly suppressed seizure activity
same,Doses giving protection similar to 3 (range of neurotoxic effects),[1]; rat kindling,> 300 mg/kg
same,ED50 in chemically-induced seizures (comparators),[5],> 200 mg/kg
O=C1NC(=O)C(c2ccccc2)(c2ccccc2)N1 [phenytoin],Effect in rat kindling model,[1]; maximally effective dose,significantly suppressed seizure activity
NS(=O)(=O)NC[C@H]1COc2c(Cl)cccc2O1 [10a],"MES, po, effect (animals responding / animals tested)","[2]; 100 mg/kg po, 0.5 h",0/5
same,"MES, po, effect (animals responding / animals tested)","[2]; 100 mg/kg po, 2 h",1/5
